Where “and” joins values, the source holds several entries; their conditions need not be identical. Equal entries are not always repeated. Toxic doses and inconclusive results are not listed.
System: P388 leukemia ip, CD2F1 mice, survival T/C
Experiment: NCI In Vivo Anticancer Drug Screen. Data for tumor model P388 Leukemia (intraperitoneal) in CD2F1 (CDF1) mice
Settings: endpoint: median survival time, higher = longer survival
Procedure, shortened: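 Mice carrying the transplanted tumor received test compound or vehicle. Survival was recorded in each group, and the value is the treated-group measurement divided by that of the vehicle-treated control group.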

[1] = dose: 100.0 mg/kg/injection, schedule: Q01DX009 (ip), vehicle: saline with Tween-80
[2] = dose: 50.0 mg/kg/injection, schedule: Q01DX009 (ip), vehicle: saline with Tween-80
[3] = dose: 100.0 mg/kg/injection, schedule: Q04DX003 (ip), vehicle: saline with Tween-80
[4] = dose: 200.0 mg/kg/injection, schedule: Q04DX003 (ip), vehicle: saline with Tween-80
[5] = dose: 100.0 mg/kg/injection, schedule: Q04DX003 (ip), vehicle: saline
[6] = dose: 50.0 mg/kg/injection, schedule: Q01DX005 (ip), vehicle: saline with Tween-80
[7] = dose: 100.0 mg/kg/injection, schedule: Q01DX005 (ip), vehicle: saline with Tween-80
[8] = dose: 200.0 mg/kg/injection, schedule: Q01DX005 (ip), vehicle: saline with Tween-80
[9] = dose: 60.0 mg/kg/injection, schedule: Q01DX005 (ip), vehicle: saline with Tween-80
[10] = dose: 120.0 mg/kg/injection, schedule: Q01DX005 (ip), vehicle: saline with Tween-80
[11] = dose: 240.0 mg/kg/injection, schedule: Q01DX005 (ip), vehicle: saline with Tween-80

SMILES: CCOC(=O)NC12c3ccccc3C(c3ccccc31)C(C(=O)O)C2C(=O)O (stereo not given)
- T/C [1]: 118 % of control
- T/C (dose: 200.0 mg/kg/injection, schedule: Q01DX009 (ip), vehicle: saline with Tween-80): 118 % of control
- T/C (dose: 400.0 mg/kg/injection, schedule: Q01DX009 (ip), vehicle: saline with Tween-80): 118 % of control

SMILES: COc1c(OC)c2oc(=O)c3cc4c(c5oc(=O)c(c1OC)c2c53)OCO4
- T/C (dose: 1.75 mg/kg/injection, schedule: Q01DX005 (ip), vehicle: other): 88 % of control
- T/C (dose: 3.5 mg/kg/injection, schedule: Q01DX005 (ip), vehicle: other): 86 % of control
- T/C (dose: 7.0 mg/kg/injection, schedule: Q01DX005 (ip), vehicle: other): 86 % of control

SMILES: O=C(CCSCCCl)Nc1c(C(=O)O)cc([N+](=O)[O-])cc1[N+](=O)[O-]
- T/C (dose: 3.13 mg/kg/injection, schedule: Q04DX003 (ip), vehicle: DMSO): 94 % of control
- T/C (dose: 6.25 mg/kg/injection, schedule: Q04DX003 (ip), vehicle: DMSO): 100 % of control
- T/C (dose: 12.5 mg/kg/injection, schedule: Q04DX003 (ip), vehicle: DMSO): 102 % of control
- T/C (dose: 25.0 mg/kg/injection, schedule: Q04DX003 (ip), vehicle: DMSO): 111 % of control
- T/C (dose: 50.0 mg/kg/injection, schedule: Q04DX003 (ip), vehicle: DMSO): 102 % of control and 109 % of control
- T/C (dose: 100.0 mg/kg/injection, schedule: Q04DX003 (ip), vehicle: DMSO): 116 % of control

SMILES: Clc1cc(Cl)c(OCC#CI)c(Cl)c1Cl
- T/C [2]: 86 % of control
- T/C [3]: 109 % of control
- T/C [4]: 100 % of control

SMILES: N#CC(C#N)(c1ccccc1)N1CCOCC1
- T/C (dose: 25.0 mg/kg/injection, schedule: Q04DX003 (ip), vehicle: saline): 109 % of control
- T/C (dose: 50.0 mg/kg/injection, schedule: Q04DX003 (ip), vehicle: saline): 100 % of control
- T/C [3]: 100 % of control
- T/C [5]: 104 % of control
- T/C [4]: 96 % of control

SMILES: O=C(CCN1C(=O)c2ccccc2C1=O)Nc1ncc[nH]1
- T/C (dose: 8.75 mg/kg/injection, schedule: Q01DX005 (ip), vehicle: Klucel (hydroxypropylcellulose) (HPC)): 98 % of control
- T/C (dose: 17.5 mg/kg/injection, schedule: Q01DX005 (ip), vehicle: Klucel (hydroxypropylcellulose) (HPC)): 98 % of control
- T/C (dose: 35.0 mg/kg/injection, schedule: Q01DX005 (ip), vehicle: Klucel (hydroxypropylcellulose) (HPC)): 96 % of control

SMILES: COCCn1c(N)c(C(=S)Nc2ccccc2)c(=O)[nH]c1=O
- T/C (dose: 50.0 mg/kg/injection, schedule: Q01DX009 (ip), vehicle: saline): 101 % of control
- T/C (dose: 100.0 mg/kg/injection, schedule: Q01DX009 (ip), vehicle: saline): 104 % of control
- T/C (dose: 200.0 mg/kg/injection, schedule: Q01DX009 (ip), vehicle: saline): 105 % of control

SMILES: CS(=N)(=O)c1ccccc1N (stereo not given)
- T/C [3]: 98 % of control
- T/C [4]: 99 % of control
- T/C (dose: 400.0 mg/kg/injection, schedule: Q04DX003 (ip), vehicle: saline with Tween-80): 103 % of control

SMILES: CC(=O)c1ccc2c(c1)c1c(C)c3c[n+](C)ccc3c(C)c1n2C
- T/C (dose: 200.0 mg/kg/injection, schedule: Q01DX001 (ip), vehicle: saline with Tween-80): 115 % of control

SMILES: O=C(O)C1CCC[N-]1.[Cl][Pt][Cl] (stereo not given)
- T/C (dose: 25.0 mg/kg/injection, schedule: Q04DX003 (ip), vehicle: water): 110 % of control
- T/C (dose: 50.0 mg/kg/injection, schedule: Q04DX003 (ip), vehicle: water): 94 % of control
- T/C [5]: 157 % of control
- T/C (dose: 150.0 mg/kg/injection, schedule: Q04DX003 (ip), vehicle: saline): 157 % of control

SMILES: CSC1=NS(=O)(=O)c2ccccc21
- T/C [6]: 96 % of control
- T/C [7]: 96 % of control
- T/C [8]: 103 % of control

SMILES: Oc1ccc2ccccc2c1/C=N\Sc1ccccc1
- T/C [2]: 98 % of control
- T/C [1]: 98 % of control

SMILES: Cc1nccnc1NN=O
- T/C (dose: 3.12 mg/kg/injection, schedule: Q01DX009 (ip), vehicle: water): 101 % of control
- T/C (dose: 6.25 mg/kg/injection, schedule: Q01DX009 (ip), vehicle: water): 104 % of control
- T/C (dose: 12.5 mg/kg/injection, schedule: Q01DX009 (ip), vehicle: water): 111 % of control and 113 % of control
- T/C (dose: 100.0 mg/kg/injection, schedule: Q01DX009 (ip), vehicle: water): 87 % of control

SMILES: COC1=C(Br)[C@H](O)[C@](O)(CC#N)C=C1Br
- T/C (dose: 6.25 mg/kg/injection, schedule: Q01DX009 (ip), vehicle: saline): 121 % of control
- T/C (dose: 8.75 mg/kg/injection, schedule: Q01DX009 (ip), vehicle: Klucel (hydroxypropylcellulose) (HPC)): 119 % of control
- T/C (dose: 12.5 mg/kg/injection, schedule: Q01DX009 (ip), vehicle: saline): 123 % of control
- T/C (dose: 25.0 mg/kg/injection, schedule: Q01DX009 (ip), vehicle: saline): 118 % of control

SMILES: O=C(N/N=C/c1ccccn1)N/N=C/c1ccccn1
- T/C (dose: 12.5 mg/kg/injection, schedule: Q01DX009 (ip), vehicle: distilled water + Tween-80): 102 % of control
- T/C (dose: 25.0 mg/kg/injection, schedule: Q01DX009 (ip), vehicle: distilled water + Tween-80): 103 % of control
- T/C (dose: 50.0 mg/kg/injection, schedule: Q01DX009 (ip), vehicle: distilled water + Tween-80): 113 % of control
- T/C (dose: 100.0 mg/kg/injection, schedule: Q01DX009 (ip), vehicle: distilled water + Tween-80): 104 % of control

SMILES: CCC(C)n1c(C)nc2ncn(-c3ccccc3)c2c1=O (stereo not given)
- T/C (dose: 50.0 mg/kg/injection, schedule: Q01DX005 (ip), vehicle: Klucel (hydroxypropylcellulose) (HPC)): 100 % of control
- T/C (dose: 100.0 mg/kg/injection, schedule: Q01DX005 (ip), vehicle: Klucel (hydroxypropylcellulose) (HPC)): 103 % of control
- T/C (dose: 200.0 mg/kg/injection, schedule: Q01DX005 (ip), vehicle: Klucel (hydroxypropylcellulose) (HPC)): 105 % of control

SMILES: O=C1c2ccccc2C(=O)c2c1ccc1c2[nH]c2cc(Cl)c(Cl)cc21
- T/C (dose: 50.0 mg/kg/injection, schedule: Q01DX005 (ip), vehicle: Klucel + Tween-80): 98 % of control
- T/C (dose: 100.0 mg/kg/injection, schedule: Q01DX005 (ip), vehicle: Klucel + Tween-80): 91 % of control
- T/C (dose: 200.0 mg/kg/injection, schedule: Q01DX005 (ip), vehicle: Klucel + Tween-80): 98 % of control

SMILES: O=c1[nH]cnc2nc3c(nc12)CCc1ccccc1-3
- T/C [9]: 100 % of control
- T/C [10]: 102 % of control
- T/C [11]: 97 % of control

SMILES: CN1C(NC(=O)C(C)(C)O)C(C)(C)C(C)(C)C1NC(=O)C(C)(C)O (stereo not given)
- T/C (dose: 30.0 mg/kg/injection, schedule: Q01DX005 (ip), vehicle: saline with Tween-80): 121 % of control
- T/C [9]: 123 % of control
- T/C [10]: 151 % of control
- T/C [11]: 123 % of control

SMILES: COc1ccc2c(c1)CCC1C2CCC2(C)C1CCC2(O)CCN (stereo not given)
- T/C (dose: 25.0 mg/kg/injection, schedule: Q04DX002 (ip), vehicle: saline): 100 % of control
- T/C (dose: 50.0 mg/kg/injection, schedule: Q04DX002 (ip), vehicle: saline): 101 % of control
- T/C (dose: 100.0 mg/kg/injection, schedule: Q04DX002 (ip), vehicle: saline): 104 % of control

SMILES: O=C1OC(=O)C2CC3OC3CC12 (stereo not given)
- T/C (dose: 12.5 mg/kg/injection, schedule: Q01DX001 (ip), vehicle: saline): 104 % of control
- T/C (dose: 25.0 mg/kg/injection, schedule: Q01DX001 (ip), vehicle: saline): 109 % of control
- T/C (dose: 50.0 mg/kg/injection, schedule: Q01DX001 (ip), vehicle: saline): 100 % of control

SMILES: COc1ccc(C2/C(=N/O)CCCC2C)cc1 (stereo not given)
- T/C [6]: 94 % of control
- T/C [7]: 97 % of control
- T/C [8]: 87 % of control

SMILES: C=C(C)c1nc(NCC)nc(NCC)n1
- T/C (dose: 100.0 mg/kg/injection, schedule: Q01DX001 (ip), vehicle: Klucel (hydroxypropylcellulose) (HPC)): 94 % of control
- T/C (dose: 200.0 mg/kg/injection, schedule: Q01DX001 (ip), vehicle: Klucel (hydroxypropylcellulose) (HPC)): 90 % of control
- T/C (dose: 400.0 mg/kg/injection, schedule: Q01DX001 (ip), vehicle: Klucel (hydroxypropylcellulose) (HPC)): 92 % of control

SMILES: O=C(O)CSC(=O)NCCCCCCNC(=O)Nc1ccccc1
- T/C [6]: 104 % of control
- T/C [7]: 105 % of control
- T/C [8]: 112 % of control

SMILES: CCCCCCCCCCCCN(CCCCCCCCCCCC)CC(O)c1cc2c(c3ccccc13)CCCC2 (stereo not given)
- T/C [6]: 101 % of control
- T/C [7]: 97 % of control
- T/C [8]: 101 % of control

SMILES: N#CN(Cc1ccccc1)C(c1ccccc1)(c1ccccc1)c1ccccc1.[Cl][Sn]([c]1ccccc1)([c]1ccccc1)[c]1ccccc1
- T/C (dose: 3.12 mg/kg/injection, schedule: Q01DX005 (ip), vehicle: saline with Tween-80): 91 % of control
- T/C (dose: 6.25 mg/kg/injection, schedule: Q01DX005 (ip), vehicle: saline with Tween-80): 98 % of control
- T/C (dose: 12.5 mg/kg/injection, schedule: Q01DX005 (ip), vehicle: saline with Tween-80): 91 % of control

Source: PubChem BioAssay AID330 (DTP/NCI, 2004)
